The CheMixHub ionic liquid set

Experiment: xn = mol fraction of the nth substance listed
Details: 101 kPa

CS(=O)(=O)[O-].C[N+](C)(CCO)CCO + CO
viscosity [mPa·s]
Details | x1 = 0.1 | x1 = 0.1996 | x1 = 0.3001 | x1 = 0.4004 | x1 = 0.5005 | x1 = 0.5976 | x1 = 0.7022 | x1 = 0.8012 | x1 = 0.9012 | x1 = 1
298.15 K | 2.03 | 5.81 | 14.8 | 34.4 | 74.1 | 164 | 316 | 566 | 940 | 1495
303.15 K | 1.85 | 5.12 | 12.57 | 28.1 | 58.3 | 125.1 | 231 | 402 | 656 | 1021
308.15 K | 1.69 | 4.55 | 10.99 | 23.3 | 46.7 | 86.6 | 175 | 296 | 469 | 716
313.15 K | 1.55 | 4.06 | 9.61 | 19.6 | 38 | 68.4 | 134.1 | 222 | 344 | 513
318.15 K | 1.431 | 3.64 | 8.35 | 16.6 | 31.3 | 54.9 | 105.2 | 170 | 258 | 378
323.15 K | 1.323 | 3.29 | 7.37 | 14.24 | 26.1 | 44.7 | 75.7 | 132.2 | 197 | 282
